The results in this text go back to PubChem BioAssay (NCI).

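The compound was tested at five concentrations on cells cultured in 96-well plates, with a 48-hour exposure period. TGI is the concentration that stops growth completely.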

In one test the test system is NCI-H226 lung. The test is described as follows: DTP human tumour cell line panel, 48 h.
Turning to `O=C1c2ccc3c4ccccc4n(Cc4ccccc4)c3c2C(=O)N1c1ccccc1`, the TGI – broadly, the concentration at which net growth stops – stood at 29.7 µM.
`O=C1[C@H]2ON(c3ccccc3)C(c3ccc(Cl)cc3)[C@H]2C(=O)N1c1ccc(Cc2ccc(N3C(=O)[C@@H]4ON(c5ccccc5)C(c5ccc(Cl)cc5)[C@@H]4C3=O)cc2)cc1` (stereo partly specified) showed a TGI above 100 µM.
Turning to `Oc1cc(C2OCCCO2)cc(O)c1O`, the TGI was above 100 µM.

Another test relates to NCI-H23 lung. The test is described as follows: DTP human tumour cell line panel, 48 h.
Turning to `COc1ccc(C2c3cc(OC)c(OC)cc3C(Cc3ccc([N+](=O)[O-])cc3)C2c2ccc([N+](=O)[O-])cc2)cc1OC` (stereo unspecified), the TGI is above 100 µM.
The same measure, in the same setting: the result for `O=C1c2ccc3c4ccccc4n(Cc4ccccc4)c3c2C(=O)N1c1ccccc1` reads 17.6 µM; that for `O=C1[C@H]2ON(c3ccccc3)C(c3ccc(Cl)cc3)[C@H]2C(=O)N1c1ccc(Cc2ccc(N3C(=O)[C@@H]4ON(c5ccccc5)C(c5ccc(Cl)cc5)[C@@H]4C3=O)cc2)cc1` (stereo partly specified), above 100 µM.
`Oc1cc(C2OCCCO2)cc(O)c1O`: the TGI is above 100 µM.

The next test relates to NCI-H460 lung. The test is described as follows: DTP human tumour cell line panel, 48 h.
`COc1ccc(C2c3cc(OC)c(OC)cc3C(Cc3ccc([N+](=O)[O-])cc3)C2c2ccc([N+](=O)[O-])cc2)cc1OC` (stereo unspecified) had a TGI above 100 µM.
The compound `O=C1c2ccc3c4ccccc4n(Cc4ccccc4)c3c2C(=O)N1c1ccccc1` came in with a TGI above 100 µM.
With `O=C1[C@H]2ON(c3ccccc3)C(c3ccc(Cl)cc3)[C@H]2C(=O)N1c1ccc(Cc2ccc(N3C(=O)[C@@H]4ON(c5ccccc5)C(c5ccc(Cl)cc5)[C@@H]4C3=O)cc2)cc1` (stereo partly specified), the TGI is above 100 µM.
On the same count and under the same terms, the result for `Oc1cc(C2OCCCO2)cc(O)c1O` reads above 100 µM.

A further test relates to NCI-H522 lung. The experiment in a line: DTP human tumour cell line panel, 48 h.
Consider `COc1ccc(C2c3cc(OC)c(OC)cc3C(Cc3ccc([N+](=O)[O-])cc3)C2c2ccc([N+](=O)[O-])cc2)cc1OC` (stereo unspecified), for which the TGI is above 100 µM.
In the case of `O=C1c2ccc3c4ccccc4n(Cc4ccccc4)c3c2C(=O)N1c1ccccc1`, the TGI amounted to 6.93 µM.
On to `O=C1[C@H]2ON(c3ccccc3)C(c3ccc(Cl)cc3)[C@H]2C(=O)N1c1ccc(Cc2ccc(N3C(=O)[C@@H]4ON(c5ccccc5)C(c5ccc(Cl)cc5)[C@@H]4C3=O)cc2)cc1` (stereo partly specified), for which the TGI is above 100 µM.
As to `Oc1cc(C2OCCCO2)cc(O)c1O`, the TGI is above 100 µM.

Another test deals with OVCAR-3 ovarian. The test is described as follows: DTP human tumour cell line panel, 48 h.
Take `COc1ccc(C2c3cc(OC)c(OC)cc3C(Cc3ccc([N+](=O)[O-])cc3)C2c2ccc([N+](=O)[O-])cc2)cc1OC` (stereo unspecified): the concentration for total growth inhibition (TGI) was above 100 µM.
Consider `O=C1c2ccc3c4ccccc4n(Cc4ccccc4)c3c2C(=O)N1c1ccccc1`, for which the TGI was 11.9 µM.
In turn, `O=C1[C@H]2ON(c3ccccc3)C(c3ccc(Cl)cc3)[C@H]2C(=O)N1c1ccc(Cc2ccc(N3C(=O)[C@@H]4ON(c5ccccc5)C(c5ccc(Cl)cc5)[C@@H]4C3=O)cc2)cc1` (stereo partly specified) returned a TGI above 100 µM.
Same read-out and setting: next, `Oc1cc(C2OCCCO2)cc(O)c1O`: above 100 µM.

The subject of a further test is OVCAR-4 ovarian. The test is described as follows: DTP human tumour cell line panel, 48 h.
In turn, `COc1ccc(C2c3cc(OC)c(OC)cc3C(Cc3ccc([N+](=O)[O-])cc3)C2c2ccc([N+](=O)[O-])cc2)cc1OC` (stereo unspecified) came in with a TGI above 100 µM.
Still for that read-out and setting: the result for `O=C1c2ccc3c4ccccc4n(Cc4ccccc4)c3c2C(=O)N1c1ccccc1` reads 23.1 µM.
`O=C1[C@H]2ON(c3ccccc3)C(c3ccc(Cl)cc3)[C@H]2C(=O)N1c1ccc(Cc2ccc(N3C(=O)[C@@H]4ON(c5ccccc5)C(c5ccc(Cl)cc5)[C@@H]4C3=O)cc2)cc1` (stereo partly specified) came in with a TGI above 100 µM.
In turn, `Oc1cc(C2OCCCO2)cc(O)c1O` yielded a TGI above 100 µM.

The test system of another test is OVCAR-5 ovarian. The test is described as follows: DTP human tumour cell line panel, 48 h.
`COc1ccc(C2c3cc(OC)c(OC)cc3C(Cc3ccc([N+](=O)[O-])cc3)C2c2ccc([N+](=O)[O-])cc2)cc1OC` (stereo unspecified): the TGI is above 100 µM.
On the same count and under the same terms, the result for `O=C1c2ccc3c4ccccc4n(Cc4ccccc4)c3c2C(=O)N1c1ccccc1` reads 33 µM; that for `O=C1[C@H]2ON(c3ccccc3)C(c3ccc(Cl)cc3)[C@H]2C(=O)N1c1ccc(Cc2ccc(N3C(=O)[C@@H]4ON(c5ccccc5)C(c5ccc(Cl)cc5)[C@@H]4C3=O)cc2)cc1` (stereo partly specified), above 100 µM.
For the compound `Oc1cc(C2OCCCO2)cc(O)c1O`, the TGI is above 100 µM.

Another test relates to OVCAR-8 ovarian. The test is described as follows: DTP human tumour cell line panel, 48 h.
In turn, `COc1ccc(C2c3cc(OC)c(OC)cc3C(Cc3ccc([N+](=O)[O-])cc3)C2c2ccc([N+](=O)[O-])cc2)cc1OC` (stereo unspecified) came in with a TGI above 100 µM.
`O=C1c2ccc3c4ccccc4n(Cc4ccccc4)c3c2C(=O)N1c1ccccc1` had a TGI of 31.9 µM.
For the compound `O=C1[C@H]2ON(c3ccccc3)C(c3ccc(Cl)cc3)[C@H]2C(=O)N1c1ccc(Cc2ccc(N3C(=O)[C@@H]4ON(c5ccccc5)C(c5ccc(Cl)cc5)[C@@H]4C3=O)cc2)cc1` (stereo partly specified), the TGI is above 100 µM.
`Oc1cc(C2OCCCO2)cc(O)c1O` gave a TGI above 100 µM.

For the next test, the system named is RPMI-8226 leukemia. The experiment in a line: DTP human tumour cell line panel, 48 h.
`COc1ccc(C2c3cc(OC)c(OC)cc3C(Cc3ccc([N+](=O)[O-])cc3)C2c2ccc([N+](=O)[O-])cc2)cc1OC` (stereo unspecified) had a TGI above 100 µM.
Compound `O=C1c2ccc3c4ccccc4n(Cc4ccccc4)c3c2C(=O)N1c1ccccc1` gave a TGI of 40.1 µM.
Same read-out and setting: next, `O=C1[C@H]2ON(c3ccccc3)C(c3ccc(Cl)cc3)[C@H]2C(=O)N1c1ccc(Cc2ccc(N3C(=O)[C@@H]4ON(c5ccccc5)C(c5ccc(Cl)cc5)[C@@H]4C3=O)cc2)cc1` (stereo partly specified): above 100 µM; `Oc1cc(C2OCCCO2)cc(O)c1O`: above 100 µM.

Another test relates to RXF 393 renal. The experiment in a line: DTP human tumour cell line panel, 48 h.
For `COc1ccc(C2c3cc(OC)c(OC)cc3C(Cc3ccc([N+](=O)[O-])cc3)C2c2ccc([N+](=O)[O-])cc2)cc1OC` (stereo unspecified), the TGI was above 100 µM.
Take `O=C1c2ccc3c4ccccc4n(Cc4ccccc4)c3c2C(=O)N1c1ccccc1`: the TGI worked out at 26.7 µM.
Same read-out and setting: the result for `O=C1[C@H]2ON(c3ccccc3)C(c3ccc(Cl)cc3)[C@H]2C(=O)N1c1ccc(Cc2ccc(N3C(=O)[C@@H]4ON(c5ccccc5)C(c5ccc(Cl)cc5)[C@@H]4C3=O)cc2)cc1` (stereo partly specified) reads above 100 µM.

In the next test the test system is RXF-631 renal. The test is described as follows: DTP human tumour cell line panel, 48 h.
For `COc1ccc(C2c3cc(OC)c(OC)cc3C(Cc3ccc([N+](=O)[O-])cc3)C2c2ccc([N+](=O)[O-])cc2)cc1OC` (stereo unspecified), the TGI is above 100 µM.
On the same count and under the same terms, next, `O=C1c2ccc3c4ccccc4n(Cc4ccccc4)c3c2C(=O)N1c1ccccc1`: 36.4 µM.
As for `O=C1[C@H]2ON(c3ccccc3)C(c3ccc(Cl)cc3)[C@H]2C(=O)N1c1ccc(Cc2ccc(N3C(=O)[C@@H]4ON(c5ccccc5)C(c5ccc(Cl)cc5)[C@@H]4C3=O)cc2)cc1` (stereo partly specified), the TGI is above 100 µM.
For the compound `Oc1cc(C2OCCCO2)cc(O)c1O`, the TGI was above 100 µM.

Another test relates to SF-268 CNS. The experiment in a line: DTP human tumour cell line panel, 48 h.
Take `COc1ccc(C2c3cc(OC)c(OC)cc3C(Cc3ccc([N+](=O)[O-])cc3)C2c2ccc([N+](=O)[O-])cc2)cc1OC` (stereo unspecified): the TGI is above 100 µM.
For the compound `O=C1c2ccc3c4ccccc4n(Cc4ccccc4)c3c2C(=O)N1c1ccccc1`, the TGI was 40.8 µM.
With `O=C1[C@H]2ON(c3ccccc3)C(c3ccc(Cl)cc3)[C@H]2C(=O)N1c1ccc(Cc2ccc(N3C(=O)[C@@H]4ON(c5ccccc5)C(c5ccc(Cl)cc5)[C@@H]4C3=O)cc2)cc1` (stereo partly specified), the TGI was above 100 µM.
The compound `Oc1cc(C2OCCCO2)cc(O)c1O` yielded a TGI above 100 µM.

In another test the test system is SF-295 CNS. The experiment in a line: DTP human tumour cell line panel, 48 h.
With `COc1ccc(C2c3cc(OC)c(OC)cc3C(Cc3ccc([N+](=O)[O-])cc3)C2c2ccc([N+](=O)[O-])cc2)cc1OC` (stereo unspecified), the TGI was above 100 µM.
With `O=C1c2ccc3c4ccccc4n(Cc4ccccc4)c3c2C(=O)N1c1ccccc1`, the TGI is 28.3 µM.
Still for that read-out and setting: next, `O=C1[C@H]2ON(c3ccccc3)C(c3ccc(Cl)cc3)[C@H]2C(=O)N1c1ccc(Cc2ccc(N3C(=O)[C@@H]4ON(c5ccccc5)C(c5ccc(Cl)cc5)[C@@H]4C3=O)cc2)cc1` (stereo partly specified): above 100 µM; `Oc1cc(C2OCCCO2)cc(O)c1O`: above 100 µM.

The next test concerns SF-539 CNS. The experiment in a line: DTP human tumour cell line panel, 48 h.
In turn, `COc1ccc(C2c3cc(OC)c(OC)cc3C(Cc3ccc([N+](=O)[O-])cc3)C2c2ccc([N+](=O)[O-])cc2)cc1OC` (stereo unspecified) gave a TGI above 100 µM.
Take `O=C1c2ccc3c4ccccc4n(Cc4ccccc4)c3c2C(=O)N1c1ccccc1`: the concentration for total growth inhibition (TGI) is 31.1 µM.
As for `O=C1[C@H]2ON(c3ccccc3)C(c3ccc(Cl)cc3)[C@H]2C(=O)N1c1ccc(Cc2ccc(N3C(=O)[C@@H]4ON(c5ccccc5)C(c5ccc(Cl)cc5)[C@@H]4C3=O)cc2)cc1` (stereo partly specified), the TGI is above 100 µM.
Turning to `Oc1cc(C2OCCCO2)cc(O)c1O`, the TGI was above 100 µM.

Another test has as its system SK-MEL-2 melanoma. The experiment in a line: DTP human tumour cell line panel, 48 h.
In turn, `COc1ccc(C2c3cc(OC)c(OC)cc3C(Cc3ccc([N+](=O)[O-])cc3)C2c2ccc([N+](=O)[O-])cc2)cc1OC` (stereo unspecified) showed a concentration for total growth inhibition (TGI) above 100 µM.
As to `O=C1c2ccc3c4ccccc4n(Cc4ccccc4)c3c2C(=O)N1c1ccccc1`, the TGI amounted to 46.5 µM.
